Source: PubChem BioAssay (NCI)
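Where inhibition never reached the appropriate level, the endpoint shown equals the highest concentration tested. Otherwise, values were interpolated linearly from a five-concentration, 48-hour dose response in 96-well plates. At the TGI there is no net growth.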

Key:
Experiment in all cases: DTP human tumour cell line panel, 48 h
[1] = system: BT-549 breast
[2] = system: SW-620 colon
[3] = system: RPMI-8226 leukemia
[4] = system: HCT-15 colon
[5] = system: HCT-116 colon
[6] = system: SF-295 CNS
[7] = system: MALME-3M melanoma
[8] = system: LOX IMVI melanoma
[9] = system: SNB-19 CNS
[10] = system: NCI-H226 lung
[11] = system: K-562 leukemia
[12] = system: HS 578T breast
[13] = system: CAKI-1 renal
[14] = system: HT29 colon
[15] = system: SK-MEL-5 melanoma
[16] = system: SN12C renal
[17] = system: MDA-MB-231 breast
[18] = system: IGROV1 ovarian
[19] = system: PC-3 prostate
[20] = system: SK-MEL-2 melanoma
[21] = system: KM12 colon
[22] = system: M14 melanoma
[23] = system: A549 NSCLC
[24] = system: OVCAR-8 ovarian
[25] = system: COLO 205 colon
[26] = system: SNB-75 CNS
[27] = system: NCI-H23 lung
[28] = system: NCI/ADR-RES ovarian
[29] = system: OVCAR-5 ovarian
[30] = system: SF-268 CNS
[31] = system: UACC-257 melanoma
[32] = system: MOLT-4 leukemia
[33] = system: ACHN renal
[34] = system: TK-10 renal
[35] = system: DU-145 prostate
[36] = system: T-47D breast
[37] = system: MCF7 breast
[38] = system: A498 renal
[39] = system: HL-60(TB) leukemia
[40] = system: SF-539 CNS
[41] = system: OVCAR-3 ovarian
[42] = system: UACC-62 melanoma
[43] = system: MDA-MB-435
[44] = system: UO-31 renal
[45] = system: SR leukemia
[46] = system: HOP-62 NSCLC
[47] = system: CCRF-CEM leukemia
[48] = system: NCI-H460 lung
[49] = system: MDA-N
[50] = system: HOP-92 NSCLC
[51] = system: NCI-H522 lung
[52] = system: SK-MEL-28 melanoma
[53] = system: OVCAR-4 ovarian
[54] = system: HCC-2998 colon
[55] = system: SK-OV-3 ovarian
[56] = system: EKVX NSCLC
[57] = system: U251 CNS
[58] = system: 786-0 renal
[59] = system: RXF 393 renal
[60] = system: M19-MEL melanoma
[61] = system: LXFL 529 NSCLC
[62] = system: DLD-1 colon

Molecule `COC(=O)CCC(=O)NC1=C(Nc2ccc(OC)cc2)C(=O)c2ccccc2C1=O` has a TGI [1] of 29 µM, a TGI [2] of 29.7 µM and a TGI [3] of 75.2 µM. The TGI [4] was 21.4 µM, the TGI [5] was 25 µM and the TGI [6] was 25.8 µM. The TGI [7] was 4.69 µM, the TGI [8] was 16.1 µM and the TGI [9] was 37.7 µM. It also gave a TGI [10] of 35.3 µM, a TGI [11] greater than 86.8 µM and a TGI [12] of 72.6 µM. For the same molecule, the TGI [13] was 40.2 µM, the TGI [14] was 30.1 µM and the TGI [15] was 3.57 µM. The TGI [16] was 27.3 µM, the TGI [17] was 27.3 µM and the TGI [18] was 26 µM. The TGI [19] was greater than 92.2 µM, the TGI [20] was 20.1 µM and the TGI [21] was 45.5 µM. For the same molecule, the TGI [22] was 19.7 µM, the TGI [23] was 29.7 µM and the TGI [24] was 75.6 µM. The TGI [25] was 28 µM, the TGI [26] was 21.2 µM and the TGI [27] was 22.7 µM. For the same molecule, the TGI [28] was 60.3 µM, the TGI [29] was 31 µM and the TGI [30] was 98.2 µM. The TGI [31] was 16.1 µM, the TGI [32] was 65.8 µM and the TGI [33] was 54.5 µM. The TGI [34] was 85.3 µM, the TGI [35] was 26.9 µM and the TGI [36] was 40.4 µM. It also gave a TGI [37] of 18.8 µM, a TGI [38] of 33.6 µM and a TGI [39] greater than 68 µM. For the same molecule, the TGI [40] was 27.9 µM, the TGI [41] was 12.6 µM and the TGI [42] was 7.67 µM. The TGI [43] was 3.53 µM, the TGI [44] was 32.1 µM and the TGI [45] was greater than 75.9 µM. For the same molecule, the TGI [46] was 33.2 µM, the TGI [47] was greater than 85.2 µM and the TGI [48] was 21.1 µM. For the same molecule, the TGI [49] was 3.44 µM, the TGI [50] was 27 µM and the TGI [51] was 24.3 µM. For the same molecule, the TGI [52] was 31.4 µM, the TGI [53] was 24.7 µM and the TGI [54] was 35.7 µM. It also gave a TGI [55] of 88.1 µM, a TGI [56] of 38.3 µM and a TGI [57] of 57.5 µM. It also gave a TGI [58] of 76.2 µM and a TGI [59] of 67 µM.

`COc1ccc(/C=N/n2cnc3c(sc(=S)n3-c3ccccc3)c2=O)cc1` showed a TGI [2] greater than 100 µM, a TGI [3] of 58.8 µM and a TGI [60] greater than 100 µM. The TGI [5] was greater than 100 µM, the TGI [6] was 31.5 µM and the TGI [9] was 77.5 µM. It also gave a TGI [10] of 54.4 µM, a TGI [11] of 48.8 µM and a TGI [14] greater than 100 µM. The TGI [15] was greater than 100 µM, the TGI [18] was greater than 100 µM and the TGI [21] was greater than 100 µM. It also gave a TGI [61] of 48.8 µM, a TGI [23] greater than 100 µM and a TGI [24] greater than 100 µM. It also gave a TGI [25] greater than 100 µM, a TGI [26] of 7.87 µM and a TGI [27] of 87.3 µM. The TGI [29] was greater than 100 µM, the TGI [30] was 38.8 µM and the TGI [31] was greater than 100 µM. The TGI [32] was 90.9 µM, the TGI [33] was greater than 100 µM and the TGI [34] was 65.4 µM. The TGI [39] was 37.9 µM, the TGI [40] was 28.5 µM and the TGI [41] was 38.1 µM. It also gave a TGI [42] of 49.8 µM, a TGI [44] greater than 100 µM and a TGI [45] greater than 100 µM. The TGI [46] was 37.3 µM, the TGI [47] was 57.8 µM and the TGI [48] was greater than 100 µM. The TGI [50] was 29.6 µM, the TGI [51] was 30.1 µM and the TGI [52] was 38.6 µM. For the same molecule, the TGI [54] was greater than 100 µM, the TGI [55] was 58.6 µM and the TGI [62] was greater than 100 µM. The TGI [57] was greater than 100 µM.

`S=C(NC1=NCC(CN2CCN(c3ccccc3)CC2)O1)Nc1ccccc1` (stereo unspecified) was tested, and the TGI [1] was greater than 100 µM, the TGI [2] was greater than 100 µM and the TGI [3] was greater than 100 µM. The TGI [4] was greater than 100 µM, the TGI [5] was greater than 100 µM and the TGI [6] was greater than 100 µM. It also gave a TGI [7] greater than 100 µM, a TGI [8] of 61.8 µM and a TGI [9] greater than 100 µM. The TGI [10] was greater than 100 µM, the TGI [11] was greater than 100 µM and the TGI [12] was greater than 100 µM. The TGI [13] was greater than 100 µM, the TGI [14] was greater than 100 µM and the TGI [15] was greater than 100 µM. It also gave a TGI [16] greater than 100 µM, a TGI [17] greater than 100 µM and a TGI [18] greater than 100 µM. The TGI [19] was greater than 100 µM, the TGI [20] was greater than 100 µM and the TGI [21] was greater than 100 µM. For the same molecule, the TGI [22] was greater than 100 µM, the TGI [23] was greater than 100 µM and the TGI [24] was greater than 100 µM. The TGI [25] was greater than 100 µM, the TGI [26] was greater than 100 µM and the TGI [27] was greater than 100 µM. For the same molecule, the TGI [28] was greater than 100 µM, the TGI [29] was greater than 100 µM and the TGI [30] was greater than 100 µM. For the same molecule, the TGI [31] was greater than 100 µM, the TGI [32] was greater than 100 µM and the TGI [33] was greater than 100 µM. For the same molecule, the TGI [34] was greater than 100 µM, the TGI [35] was greater than 100 µM and the TGI [36] was greater than 100 µM. It also gave a TGI [37] greater than 100 µM, a TGI [38] greater than 100 µM and a TGI [39] greater than 100 µM. The TGI [40] was greater than 100 µM, the TGI [41] was greater than 100 µM and the TGI [42] was greater than 100 µM. It also gave a TGI [43] greater than 100 µM, a TGI [44] of 97.5 µM and a TGI [45] greater than 100 µM. It also gave a TGI [46] greater than 100 µM, a TGI [47] greater than 100 µM and a TGI [48] greater than 100 µM. For the same molecule, the TGI [49] was greater than 100 µM, the TGI [50] was greater than 100 µM and the TGI [51] was greater than 100 µM. The TGI [52] was greater than 100 µM, the TGI [53] was greater than 100 µM and the TGI [54] was greater than 100 µM. The TGI [55] was greater than 100 µM, the TGI [56] was greater than 100 µM and the TGI [57] was greater than 100 µM. The TGI [58] was greater than 100 µM and the TGI [59] was greater than 100 µM.

`COC(=O)[C@]1(c2cc3ccccc3n2S(=O)(=O)c2ccccc2)CC2CN(C(C)=O)C1CC2=O` (stereo partly specified) gave a TGI [1] of 7.24 µM, a TGI [2] greater than 20.9 µM and a TGI [3] of 4.26 µM. The TGI [4] was 9.06 µM, the TGI [5] was 4.2 µM and the TGI [6] was 30.1 µM. It also gave a TGI [7] of 6.69 µM, a TGI [8] of 3.8 µM and a TGI [9] of 12.5 µM. For the same molecule, the TGI [10] was 10.4 µM, the TGI [11] was 12.1 µM and the TGI [12] was greater than 43.8 µM. It also gave a TGI [13] of 7.79 µM, a TGI [14] of 4.55 µM and a TGI [15] of 14 µM. It also gave a TGI [16] of 8.11 µM, a TGI [17] of 7.4 µM and a TGI [18] of 5.22 µM. For the same molecule, the TGI [19] was 3.83 µM, the TGI [20] was 7.52 µM and the TGI [21] was 8.22 µM. For the same molecule, the TGI [22] was 4.63 µM, the TGI [23] was 13.1 µM and the TGI [24] was 11.1 µM. For the same molecule, the TGI [25] was 7.29 µM, the TGI [26] was 12.3 µM and the TGI [27] was 9.38 µM. It also gave a TGI [28] greater than 40.4 µM, a TGI [29] of 13.1 µM and a TGI [30] of 5.83 µM. It also gave a TGI [31] of 7.8 µM, a TGI [32] of 4.85 µM and a TGI [33] of 3.97 µM. For the same molecule, the TGI [34] was 23.4 µM, the TGI [35] was 11.7 µM and the TGI [36] was 7.05 µM. The TGI [37] was 3.37 µM, the TGI [38] was 21.4 µM and the TGI [39] was 4.64 µM. For the same molecule, the TGI [40] was 12.7 µM, the TGI [41] was 6.03 µM and the TGI [42] was 3.27 µM. It also gave a TGI [43] of 6.32 µM, a TGI [44] of 3.45 µM and a TGI [45] of 5.12 µM. For the same molecule, the TGI [46] was 16.4 µM, the TGI [48] was 10.9 µM and the TGI [49] was 9.32 µM. It also gave a TGI [50] of 16.5 µM, a TGI [51] of 4.62 µM and a TGI [52] of 11.7 µM. For the same molecule, the TGI [53] was 10.7 µM, the TGI [54] was 14 µM and the TGI [55] was 21.7 µM. The TGI [56] was 6.17 µM, the TGI [57] was 3.08 µM and the TGI [58] was 2.97 µM. For the same molecule, the TGI [59] was 3.39 µM.
